{
  "source": "patent US20100120700A1",
  "about": "“METHODS AND COMPOSITIONS FOR TREATING CERVICAL CANCER” (priority 2000, published 2010)",
  "key": {"[1]": {"target": "T1, Syntrophin gamma 2 domain 1 (Homo sapiens, UniProt Q9NY99)", "T1 construct": "made in house; host or cells: E. coli (DH5alpha, BL21 or JM109), vector pGEX-3X", "T1 sequence (Q9NY99 65-163)": "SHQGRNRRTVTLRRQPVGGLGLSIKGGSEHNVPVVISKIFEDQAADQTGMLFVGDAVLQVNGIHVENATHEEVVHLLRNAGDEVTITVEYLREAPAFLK", "test": "G assay PDZ-PL binding", "settings": "peptide 10 uM, protein 5", "method": "(§1) (1) A PDZ-domain polypeptide is bound to a surface, e.g. a protein binding surface. In a preferred embodiment, a GST/PDZ fusion protein containing one or more PDZ domains is bound to a polystyrene 96-well plate. […] In one embodiment, the GST/PDZ fusion protein is bound via an anti-GST antibody that is coated onto the 96-well plate. Adequate binding to the plate can be achieved when: • a. 100 uL per well of 5 ug/mL goat anti-GST polyclonal antibody (Pierce) in PBS is added to a polystyrene 96-well plate (e.g., Num Polysorb) at 4° C. for 12 hours. • b. The plate is blocked by addition of 200 uL per well of PBS/BSA for 2 hours at 4° C. • c. The plate is washed 3 times with PBS. • d. 50 uL per well of 5 ug/mL GST/PDZ fusion protein) or, as a negative control, GST polypeptide alone (i.e. not a fusion protein) in PBS/BSA is added to the plate for 2 hours at 4° C. • e. The plate is again washed 3 times with PBS. […]\n(§2) (3) The binding of the biotinylated peptide to the GST/PDZ fusion protein surface can be detected using a variety of methods and detectors known to one of skill in the art. In one embodiment, 100 uL per well of 0.5 ug/mL streptavidin-horse radish peroxidase (HRP) conjugate dissolved in BSA/PBS is added and allowed to react for 20 minutes at 4° C. The plate is then washed 5 times with 50 mM Tris pH 8.0 containing 0.2% Tween 20, and developed by addition of 100 uL per well of HRP-substrate solution (TMB, Dako) for 20 minutes at room temperature (RT). The reaction of the HRP and its substrate is terminated by addition of 100 uL per well of 1M sulfuric acid, and the absorbance of each well of the plate is read at 450 nm.\n(§3) (4) Specific binding of a PL peptide and a PDZ domain polypeptide is determined by comparing the signal from the well(s) in which the PL peptide and PDZ domain polypeptide are combined, with the background signal(s). The background signal is the signal found in the negative control(s). Typically a specific or selective reaction will be at least twice background signal, more typically more than 5 times background, and most typically 10 or more times the background signal. In addition, a statistically significant reaction will involve multiple measurements of the reaction with the signal and the background differing by at least two standard errors, more typically four standard errors, and most typically six or more standard errors. Correspondingly, a statistical test (e.g. a T-test) comparing repeated measurements of the signal with-repeated measurements of the background will result in a p-value<0.05, more typically a p-value<0.01, and most typically a p-value<0.001 or less. As noted, in an embodiment of the “G” assay, the signal from binding of a given PL peptide to immobilized (surface bound) GST polypeptide alone is one suitable negative control (sometimes referred to as “B 1”). Because all measurement are done in multiples (i.e. at least duplicate) the arithmetic mean (or, equivalently, average.) of several measurements is used in determining the binding, and the standard error of the mean is used in determining the probable error in the measurement of the binding. The standard error of the mean of N measurements equals the square root of the following: the sum of the squares of the difference between each measurement and the mean, divided by the product of (N) and (N−1). Thus, in one embodiment, specific binding of the PDZ protein to the platebound peptide is determined by comparing the mean signal (“mean S”) and standard error of the signal (“SE”) for a particular PL-PDZ combination with the mean B1.\n(§4) For convenience, the assay conditions described in this section are referred to as the “G’ assay” and the “G” assay,” with the specific conditions described in the preceding section on G assays being referred to as the “G° assay.” The “G′ assay” is identical to the “G° assay” except at step (2) the peptide concentration is 10 uM instead of 20 uM. […]"}, "MAGI 1 domain 3": {"target": "T2, MAGI 1 domain 3 (Homo sapiens, UniProt Q96QZ7)", "T2 construct": "made in house; host or cells: E. coli (DH5alpha, BL21 or JM109)", "T2 sequence (Q96QZ7 with tags, fused parts or gaps)": "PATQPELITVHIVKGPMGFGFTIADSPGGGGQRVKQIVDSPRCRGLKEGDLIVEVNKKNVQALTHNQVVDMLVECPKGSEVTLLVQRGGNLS", "test": "G assay PDZ-PL binding", "settings": "peptide 10 uM, protein 5", "method": "as §1, §2, §3, §4"}, "KIAA0973 #148.5 domain 1": {"target": "T3, KIAA0973 #148.5 domain 1 (Homo sapiens, UniProt Q9Y2H9)", "T3 construct": "made in house; host or cells: E. coli (DH5alpha, BL21 or JM109)", "T3 sequence (Q9Y2H9 963-1055)": "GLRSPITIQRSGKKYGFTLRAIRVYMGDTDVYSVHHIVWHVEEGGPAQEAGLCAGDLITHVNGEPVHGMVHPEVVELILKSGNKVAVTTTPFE", "test": "G assay PDZ-PL binding", "settings": "peptide 10 uM, protein 5", "method": "as §1, §2, §3, §4"}, "MINT1 domain 1, 2": {"target": "T4, MINT1 domain 1, 2 (Homo sapiens, UniProt Q02410)", "T4 construct": "When more than one PDZ domain was cloned, the DNA portion cloned represents the PDZ domains and the cDNA portion located between individual domains; made in house; host or cells: E. coli (DH5alpha, BL21 or JM109), vector pGEX-3X", "T4 sequence (Q02410 651-828 limits assumed)": "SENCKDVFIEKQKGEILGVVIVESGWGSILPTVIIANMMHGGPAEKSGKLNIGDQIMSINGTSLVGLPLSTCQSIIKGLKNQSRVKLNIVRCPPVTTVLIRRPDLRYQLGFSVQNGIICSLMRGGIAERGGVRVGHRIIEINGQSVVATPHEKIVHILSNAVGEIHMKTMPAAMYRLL", "test": "G assay PDZ-PL binding", "settings": "peptide 10 uM, protein 5", "method": "as §1, §2, §3, §4"}, "X-11 beta domain 2": {"target": "T5, X-11 beta domain 2 (Homo sapiens, UniProt Q99767)", "T5 construct": "made in house; host or cells: E. coli (DH5alpha or BL-21)", "T5 sequence (Q99767 with tags, fused parts or gaps)": "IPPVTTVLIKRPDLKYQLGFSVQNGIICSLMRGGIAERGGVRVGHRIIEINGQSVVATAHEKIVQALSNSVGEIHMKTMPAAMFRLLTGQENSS", "test": "G assay PDZ-PL binding", "settings": "peptide 10 uM, protein 5", "method": "as §1, §2, §3, §4"}, "KIAA1526 #119.1 domain 1": {"target": "T6, KIAA1526 #119.1 domain 1 (Homo sapiens, UniProt Q9P202)", "T6 construct": "made in house; host or cells: E. coli (DH5alpha or BL-21)", "T6 sequence (Q9P202 130-232)": "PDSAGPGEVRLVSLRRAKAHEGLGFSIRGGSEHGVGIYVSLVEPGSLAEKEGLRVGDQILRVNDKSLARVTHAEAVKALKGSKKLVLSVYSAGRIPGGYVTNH", "test": "G assay PDZ-PL binding", "settings": "peptide 10 uM, protein 5", "method": "as §1, §2, §3, §4"}, "NSP #42.5 domain 1": {"target": "T7, NSP #42.5 domain 1 (Homo sapiens, UniProt Q92743)", "T7 construct": "made in house; host or cells: E. coli (DH5alpha or BL-21)", "T7 sequence (Q92743 359-473)": "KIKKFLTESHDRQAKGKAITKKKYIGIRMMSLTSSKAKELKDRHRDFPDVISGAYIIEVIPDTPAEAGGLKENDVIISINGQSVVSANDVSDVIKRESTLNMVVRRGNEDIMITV", "test": "G assay PDZ-PL binding", "settings": "peptide 10 uM, protein 5", "method": "as §1, §2, §3, §4"}, "[2]": {"target": "T8, HEMBA 1003117 #193.3 domain 1 (Homo sapiens, UniProt Q96JH8)", "T8 construct": "made in house; host or cells: E. coli (DH5alpha, BL21 or JM109)", "T8 sequence (Q96JH8 969-1068)": "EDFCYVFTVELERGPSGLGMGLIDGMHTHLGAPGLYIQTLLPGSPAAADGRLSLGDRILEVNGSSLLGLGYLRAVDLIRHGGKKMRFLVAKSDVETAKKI", "test": "G assay PDZ-PL binding", "settings": "peptide 10 uM, protein 5", "method": "as §1, §2, §3, §4"}, "TIP1": {"target": "T9, TIP1 (Homo sapiens, UniProt O14907)", "T9 construct": "made in house; host or cells: E. coli (DH5alpha, BL21 or JM109)", "T9 sequence (O14907 14-116)": "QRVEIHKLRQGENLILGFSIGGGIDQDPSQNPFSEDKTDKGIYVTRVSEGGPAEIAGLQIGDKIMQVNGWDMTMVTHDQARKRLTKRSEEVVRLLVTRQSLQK", "test": "G assay peptide titration (EC50)", "assay_type": "binding", "settings": "E6 peptide titrated against constant GST-PDZ", "procedure": "(1) A GST/PDZ fusion protein, as well as GST alone as a negative control, are bound to a surface (e.g., a 96-well plate) and the surface blocked and washed as described supra for the “G” assay.\n(2) 50 uL per well of a solution of biotinylated PL peptide (e.g. as shown in TABLE 2) is added to the surface in increasing concentrations in PBS/BSA (e.g. at 0.1 uM, 0.33 uM, 1 uM, 3.3 uM, 10 uM, 33 uM, and 100 uM). In one embodiment, the PL peptide is allowed to react with the bound GST/PDZ fusion protein (as well as the GST alone negative control) for 10 minutes at 4° C. followed by 20 minutes at 25° C. The plate is washed 3 times with ice cold PBS to remove unbound labeled peptide.\n(3) The binding of the PL peptide to the immobilized PDZ-domain polypeptide is detected as described supra for the “G” assay.\n(4) For each concentration of peptide, the net binding signal is determined by subtracting the binding of the peptide to GST alone from the binding of the peptide to the GST/PDZ fusion protein. […]\nRelative binding affinities for the 14 most significant interactions with different PDZ domains were determined by E6 peptide titrations."}, "DLG-6 #333.1 domain 1": {"test_system": "DLG-6 #333.1 domain 1", "test": "G assay PDZ-PL binding", "parameters": "species or system human", "settings": "peptide 10 uM, protein 5", "method": "as §1, §2, §3, §4"}, "NSP #268.2 domain 1": {"test_system": "NSP #268.2 domain 1", "test": "G assay PDZ-PL binding", "parameters": "species or system human", "settings": "peptide 10 uM, protein 5", "method": "as §1, §2, §3, §4"}, "FLJ00011 domain 1": {"test_system": "FLJ00011 domain 1", "sequence (as listed by the source)": "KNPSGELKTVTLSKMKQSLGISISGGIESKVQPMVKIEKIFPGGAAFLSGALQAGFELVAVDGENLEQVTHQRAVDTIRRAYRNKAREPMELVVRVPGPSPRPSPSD", "test": "G assay PDZ-PL binding", "parameters": "species or system human", "settings": "peptide 10 uM, protein 5", "method": "as §1, §2, §3, §4"}},
  "note": "Several values for one entry are separate records, joined by “and”; a condition that tells them apart may be missing. Equal entries are not always repeated.",
  "data": [
    {"substance": "20 mer peptide corresponding to the C-terminus of HPV16 E6 (PDZ ligand), biotinylated in binding assays; ends SSRTRRETQL (SEQ ID NO: 13) [HPV E6 #16]", "values": [
      {"measurement": "Ave OD", "setting": "[1]; A450 nm", "result": "0.469 and 0.7725"},
      {"measurement": "OD S/N", "setting": "[1]; vs GST only well", "result": "2.76 and 3.13"},
      {"measurement": "Ave OD", "setting": "MAGI 1 domain 3; A450 nm", "result": 0.354},
      {"measurement": "OD S/N", "setting": "MAGI 1 domain 3; vs GST only well", "result": 1.46},
      {"measurement": "Ave OD", "setting": "KIAA0973 #148.5 domain 1; A450 nm", "result": "0.378 and 0.4985"},
      {"measurement": "OD S/N", "setting": "KIAA0973 #148.5 domain 1; vs GST only well", "result": "1.68 and 2.71"},
      {"measurement": "Ave OD", "setting": "MINT1 domain 1, 2; A450 nm", "result": "0.3655 and 0.6075"},
      {"measurement": "OD S/N", "setting": "MINT1 domain 1, 2; vs GST only well", "result": "1.42 and 2.11"},
      {"measurement": "Ave OD", "setting": "X-11 beta domain 2; A450 nm", "result": "0.4315 and 0.4265"},
      {"measurement": "OD S/N", "setting": "X-11 beta domain 2; vs GST only well", "result": "2.95 and 1.78"},
      {"measurement": "Ave OD", "setting": "KIAA1526 #119.1 domain 1; A450 nm", "result": 0.425},
      {"measurement": "OD S/N", "setting": "KIAA1526 #119.1 domain 1; vs GST only well", "result": 1.38},
      {"measurement": "Ave OD", "setting": "NSP #42.5 domain 1; A450 nm", "result": 0.4165},
      {"measurement": "OD S/N", "setting": "NSP #42.5 domain 1; vs GST only well", "result": 1.95},
      {"measurement": "Ave OD", "setting": "[2]; A450 nm", "result": 0.517},
      {"measurement": "OD S/N", "setting": "[2]; vs GST only well", "result": 2.20},
      {"measurement": "EC50", "setting": "TIP1", "result": 750, "unit": "nM"},
      {"measurement": "Ave OD", "setting": "DLG-6 #333.1 domain 1; A450 nm", "result": 0.3495},
      {"measurement": "OD S/N", "setting": "DLG-6 #333.1 domain 1; vs GST only well", "result": 2.04},
      {"measurement": "Ave OD", "setting": "NSP #268.2 domain 1; A450 nm", "result": 0.724},
      {"measurement": "OD S/N", "setting": "NSP #268.2 domain 1; vs GST only well", "result": 2.58},
      {"measurement": "Ave OD", "setting": "FLJ00011 domain 1; A450 nm", "result": "0.423 and 0.8185"},
      {"measurement": "OD S/N", "setting": "FLJ00011 domain 1; vs GST only well", "result": "2.90 and 3.97"}
    ]}
  ]
}
